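1) Cells in 96-well plates. 2) Compound, 48 h, 5 concentrations. 3) Linear interpolation between surrounding doses. 4) Unreached endpoint = highest concentration. Here, GI50 denotes the concentration required for 50% inhibition of growth.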 Activity calls are given as the source filed them. Cut-off read from the data, not from the text of the source: active = GI50 up to about 1.1 µM and inactive = higher.
Assays:
Test in all cases: growth of human tumour cells (NCI), 48 h
UO-31 = test system: UO-31
A549 = test system: A549
SK-MEL-2 = test system: SK-MEL-2
HT-29 = test system: HT-29
UACC-257 = test system: UACC-257
UACC-62 = test system: UACC-62
PC-3 = test system: PC-3
HCT-116 = test system: HCT-116
T47D = test system: T47D
OVCAR-8 = test system: OVCAR-8
OVCAR-3 = test system: OVCAR-3
IGROV-1 = test system: IGROV-1
RPMI-8226 = test system: RPMI-8226
TK-10 = test system: TK-10
K562 = test system: K562
CCRF-CEM = test system: CCRF-CEM
NCI-H23 = test system: NCI-H23
SK-MEL-28 = test system: SK-MEL-28
MCF7 = test system: MCF7
HOP-92 = test system: HOP-92

SMILES: CN1N=C(c2ccncc2)OC1c1cccc(C(F)(F)F)c1 (stereo unspecified)
- GI50 (UO-31): > 100 µM (inactive)
- GI50 (A549): > 100 µM (inactive)
- GI50 (SK-MEL-2): > 100 µM (inactive)
- GI50 (HT-29): > 100 µM (inactive)
- GI50 (UACC-257): > 100 µM (inactive)
- GI50 (UACC-62): > 100 µM (inactive)
- GI50 (PC-3): > 100 µM (inactive)
- GI50 (HCT-116): 67.1 µM (inactive)
- GI50 (T47D): 96.6 µM (inactive)
- GI50 (OVCAR-8): > 100 µM (inactive)
- GI50 (OVCAR-3): 71.1 µM (inactive)
- GI50 (IGROV-1): > 100 µM (inactive)
- GI50 (RPMI-8226): > 100 µM (inactive)
- GI50 (TK-10): > 100 µM (inactive)
- GI50 (K562): 96.8 µM (inactive)
- GI50 (CCRF-CEM): > 100 µM (inactive)
- GI50 (NCI-H23): > 100 µM (inactive)
- GI50 (SK-MEL-28): > 100 µM (inactive)

SMILES: Cc1ccc(-c2c(C#N)c(-c3ccc([N+](=O)[O-])cc3)c(C#N)c(=O)n2NS(=O)(=O)c2ccc(C)cc2)cc1
- GI50 (A549): 51.9 µM (inactive)
- GI50 (SK-MEL-2): 62.4 µM (inactive)
- GI50 (HT-29): 56.4 µM (inactive)
- GI50 (UACC-257): > 100 µM (inactive)
- GI50 (UACC-62): 31 µM (inactive)
- GI50 (PC-3): 42.8 µM (inactive)
- GI50 (HCT-116): 36.6 µM (inactive)
- GI50 (MCF7): 24.9 µM (inactive)
- GI50 (OVCAR-8): 49.1 µM (inactive)
- GI50 (OVCAR-3): 21.2 µM (inactive)
- GI50 (IGROV-1): 24.7 µM (inactive)
- GI50 (RPMI-8226): 18.9 µM (inactive)
- GI50 (TK-10): 51.3 µM (inactive)
- GI50 (K562): 46.2 µM (inactive)
- GI50 (CCRF-CEM): 25.9 µM (inactive)
- GI50 (SK-MEL-28): 52.8 µM (inactive)
- GI50 (HOP-92): 23.5 µM (inactive)

SMILES: O=C1C(Cl)C(c2cc(Br)ccc2O)N1n1cnc2ccccc2c1=O (stereo unspecified)
- GI50 (UO-31): 7.4 µM (inactive)
- GI50 (A549): 26.9 µM (inactive)
- GI50 (SK-MEL-2): 22.1 µM (inactive)
- GI50 (HT-29): 30.5 µM (inactive)
- GI50 (UACC-257): 10.5 µM (inactive)
- GI50 (UACC-62): 11.5 µM (inactive)
- GI50 (HCT-116): 5.96 µM (inactive)
- GI50 (OVCAR-8): 12.1 µM (inactive)
- GI50 (OVCAR-3): 6.93 µM (inactive)
- GI50 (IGROV-1): 17.5 µM (inactive)
- GI50 (RPMI-8226): 5.4 µM (inactive)
- GI50 (TK-10): 31.8 µM (inactive)
- GI50 (K562): 5.27 µM (inactive)
- GI50 (CCRF-CEM): 3.28 µM (inactive)
- GI50 (NCI-H23): 16.5 µM (inactive)
- GI50 (SK-MEL-28): 14.1 µM (inactive)
- GI50 (HOP-92): 15.7 µM (inactive)

SMILES: CCc1n[nH]c(=O)n1O
- GI50 (UO-31): > 100 µM (inactive)
- GI50 (A549): > 100 µM (inactive)
- GI50 (SK-MEL-2): > 100 µM (inactive)
- GI50 (HT-29): > 100 µM (inactive)
- GI50 (UACC-257): > 100 µM (inactive)
- GI50 (UACC-62): > 100 µM (inactive)
- GI50 (HCT-116): > 100 µM (inactive)
- GI50 (MCF7): > 100 µM (inactive)
- GI50 (T47D): > 100 µM (inactive)
- GI50 (OVCAR-8): > 100 µM (inactive)
- GI50 (OVCAR-3): > 100 µM (inactive)
- GI50 (IGROV-1): > 100 µM (inactive)
- GI50 (TK-10): > 100 µM (inactive)
- GI50 (K562): > 100 µM (inactive)
- GI50 (CCRF-CEM): > 100 µM (inactive)
- GI50 (NCI-H23): > 100 µM (inactive)
- GI50 (SK-MEL-28): > 100 µM (inactive)
- GI50 (HOP-92): 0.0738 µM (active)

SMILES: COC(=O)[C@](NC(=O)OCc1ccccc1)([C@@H](C)[S+]([O-])c1ccc(C)cc1)C(F)(F)F (stereo partly specified)
- GI50 (UO-31): 27.7 µM (inactive)
- GI50 (A549): 29.9 µM (inactive)
- GI50 (SK-MEL-2): 19.5 µM (inactive)
- GI50 (HT-29): 24.8 µM (inactive)
- GI50 (UACC-257): 24.8 µM (inactive)
- GI50 (UACC-62): 37.3 µM (inactive)
- GI50 (PC-3): 27.9 µM (inactive)
- GI50 (HCT-116): 42.1 µM (inactive)
- GI50 (T47D): 35.8 µM (inactive)
- GI50 (OVCAR-8): 35.2 µM (inactive)
- GI50 (OVCAR-3): 43.7 µM (inactive)
- GI50 (IGROV-1): 24.6 µM (inactive)
- GI50 (RPMI-8226): 26.5 µM (inactive)
- GI50 (TK-10): 21.5 µM (inactive)
- GI50 (K562): 34.4 µM (inactive)
- GI50 (CCRF-CEM): 22.8 µM (inactive)
- GI50 (NCI-H23): 32.1 µM (inactive)
- GI50 (SK-MEL-28): 62.7 µM (inactive)
- GI50 (HOP-92): 26.9 µM (inactive)

SMILES: CCc1nc2c(O)ccc(O)c2nc1C
- GI50 (UO-31): 19.3 µM (inactive)
- GI50 (A549): 21.8 µM (inactive)
- GI50 (SK-MEL-2): 18 µM (inactive)
- GI50 (HT-29): 17.2 µM (inactive)
- GI50 (UACC-257): 17.4 µM (inactive)
- GI50 (UACC-62): 14.3 µM (inactive)
- GI50 (HCT-116): 8.38 µM (inactive)
- GI50 (OVCAR-8): 10 µM (inactive)
- GI50 (OVCAR-3): 14.7 µM (inactive)
- GI50 (IGROV-1): 19 µM (inactive)
- GI50 (RPMI-8226): 3.8 µM (inactive)
- GI50 (TK-10): 22.5 µM (inactive)
- GI50 (K562): 4.08 µM (inactive)
- GI50 (CCRF-CEM): 2.9 µM (inactive)
- GI50 (NCI-H23): 18.6 µM (inactive)
- GI50 (SK-MEL-28): 19.6 µM (inactive)
- GI50 (HOP-92): 5.64 µM (inactive)

SMILES: Oc1c(/N=N\c2ccccc2)c2cccc3ccc4cccc1c4c32
- GI50 (UO-31): > 100 µM (inactive)
- GI50 (A549): > 100 µM (inactive)
- GI50 (SK-MEL-2): > 100 µM (inactive)
- GI50 (HT-29): > 100 µM (inactive)
- GI50 (UACC-257): > 100 µM (inactive)
- GI50 (UACC-62): > 100 µM (inactive)
- GI50 (PC-3): > 100 µM (inactive)
- GI50 (HCT-116): > 100 µM (inactive)
- GI50 (T47D): > 100 µM (inactive)
- GI50 (OVCAR-8): 40.2 µM (inactive)
- GI50 (OVCAR-3): > 100 µM (inactive)
- GI50 (IGROV-1): > 100 µM (inactive)
- GI50 (RPMI-8226): > 100 µM (inactive)
- GI50 (TK-10): > 100 µM (inactive)
- GI50 (K562): > 100 µM (inactive)
- GI50 (CCRF-CEM): > 100 µM (inactive)
- GI50 (NCI-H23): > 100 µM (inactive)
- GI50 (SK-MEL-28): > 100 µM (inactive)
- GI50 (HOP-92): > 100 µM (inactive)

SMILES: O=C1C=CC(=O)N1n1c(-c2ccccc2)n[nH]c1=O
- GI50 (A549): > 100 µM (inactive)
- GI50 (SK-MEL-2): > 100 µM (inactive)
- GI50 (HT-29): > 100 µM (inactive)
- GI50 (UACC-257): > 100 µM (inactive)
- GI50 (UACC-62): > 100 µM (inactive)
- GI50 (PC-3): > 100 µM (inactive)
- GI50 (HCT-116): > 100 µM (inactive)
- GI50 (MCF7): > 100 µM (inactive)
- GI50 (T47D): > 100 µM (inactive)
- GI50 (OVCAR-8): > 100 µM (inactive)
- GI50 (OVCAR-3): > 100 µM (inactive)
- GI50 (IGROV-1): > 100 µM (inactive)
- GI50 (TK-10): > 100 µM (inactive)
- GI50 (K562): > 100 µM (inactive)
- GI50 (CCRF-CEM): > 100 µM (inactive)
- GI50 (NCI-H23): > 100 µM (inactive)

Source: ChEMBL document CHEMBL1201862, “PubChem BioAssay data set” (2004)
